Results taken from the supplement of paper PMC10307832.

Key:
Assay in all cases: relative viability (nuclei count vs DMSO), 5 days (fraction); higher = more cells survive
[1] = compound: COC1=CC=C(C=C1)CN2C=CC3=C2C=C(C=C3)C(=O)NO + CC(C)C[C@H](NC(=O)[C@H](Cc1ccccc1)NC(=O)c1cnccn1)B(O)O [Bortezomib] (partner 0.002 µM)
Outline: (§1)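 Relative viability is defined as nuclei in treated wells over nuclei in vehicle wells. Duplicate plates were run and medians reported. Lung cancer cell lines in 1536-well plates were dosed by pin tool one day after seeding, with one drug or with a fixed anchor-drug dose plus five library-drug doses (not always all listed) in √10 steps, and nuclei were counted after 5 days.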

[2] = compound: COC1=CC=C(C=C1)CN2C=CC3=C2C=C(C=C3)C(=O)NO + C[C@]1(O)C[C@@H](c2nc(-c3ccc4ccc(-c5ccccc5)nc4c3)c3c(N)nccn32)C1 [Linsitinib] (partner 1 µM)
Outline: as §1

Veliparib + Palbociclib = compound: C[C@]1(c2nc3c(C(N)=O)cccc3[nH]2)CCCN1 [Veliparib] + CC(=O)c1c(C)c2cnc(Nc3ccc(N4CCNCC4)cn3)nc2n(C2CCCC2)c1=O [Palbociclib] (partner 0.5 µM)
Outline: as §1

Veliparib + Dasatinib = compound: C[C@]1(c2nc3c(C(N)=O)cccc3[nH]2)CCCN1 [Veliparib] + Cc1nc(Nc2ncc(C(=O)Nc3c(C)cccc3Cl)s2)cc(N2CCN(CCO)CC2)n1 [Dasatinib] (partner 0.075 µM)
Outline: as §1

Row | Cell Line | relative viability ([1]; first compound 0.08 µM) | relative viability ([1]; first compound 0.253 µM) | relative viability ([1]; first compound 0.8 µM) | relative viability ([1]; first compound 2.53 µM) | relative viability ([1]; first compound 8 µM) | relative viability ([2]; first compound 0.08 µM) | relative viability ([2]; first compound 0.253 µM) | relative viability ([2]; first compound 0.8 µM) | relative viability ([2]; first compound 2.53 µM) | relative viability ([2]; first compound 8 µM) | relative viability (Veliparib + Palbociclib; first compound 0.02 µM) | relative viability (Veliparib + Palbociclib; first compound 0.06325 µM) | relative viability (Veliparib + Palbociclib; first compound 0.2 µM) | relative viability (Veliparib + Palbociclib; first compound 0.6325 µM) | relative viability (Veliparib + Palbociclib; first compound 2 µM) | relative viability (Veliparib + Dasatinib; first compound 0.02 µM) | relative viability (Veliparib + Dasatinib; first compound 0.06325 µM) | relative viability (Veliparib + Dasatinib; first compound 0.2 µM) | relative viability (Veliparib + Dasatinib; first compound 0.6325 µM) | relative viability (Veliparib + Dasatinib; first compound 2 µM)
1 | NCI-H647 | 0.789 | 0.929 | 0.848 | 0.846 | 1.11 | 0.886 | 1.01 | 1.2 | 1.28 | 1.02 | 0.392 | 0.325 | 0.425 | 0.423 | 0.469 | 0.164 | 0.187 | 0.243 | 0.165 | 0.192
2 | NCI-H650 | 0.832 | 0.732 | 0.881 | 0.928 | 0.64 | 0.793 | 0.849 | 0.95 | 0.936 | 0.725 | 0.309 | 0.278 | 0.344 | 0.33 | 0.331 | 0.378 | 0.372 | 0.414 | 0.369 | 0.423
3 | NCI-H661 |  | 0.811 | 0.649 | 0.843 | 0.715 |  | 0.525 | 0.555 | 0.521 | 0.46 | 0.382 | 0.41 | 0.4 | 0.371 | 0.384 | 0.886 | 0.846 | 0.777 | 0.86 | 0.869
4 | NCI-H727 | 0.834 | 0.98 | 1.09 | 0.908 | 0.755 | 0.214 | 0.355 | 0.298 | 0.256 | 0.298 | 0.7 | 0.689 | 0.624 | 0.661 | 0.605 | 0.267 | 0.365 | 0.305 | 0.47 | 0.331
5 | NCI-H838 |  | 0.99 | 0.899 | 0.885 | 0.719 |  | 1.13 | 1.13 | 1.08 | 0.961 | 0.22 | 0.191 | 0.235 | 0.225 | 0.224 | 0.269 | 0.287 | 0.256 | 0.246 | 0.326
6 | NCI-H1355 | 1.1 | 1.15 | 1.34 | 1.27 | 1.19 | 0.792 | 0.826 | 0.812 | 0.895 | 0.809 | 0.305 | 0.396 | 0.375 | 0.417 | 0.402 |  | 0.676 | 0.682 | 0.611 | 0.524
7 | NCI-H1437 | 0.38 | 0.483 | 0.527 | 0.581 | 0.393 | 0.847 | 1.1 | 1.01 | 1 | 1.13 | 0.304 | 0.323 | 0.281 | 0.362 | 0.335 | 0.212 | 0.36 | 0.424 | 0.421 | 0.249
8 | NCI-H1651 | 0.923 | 0.887 | 0.923 | 0.888 | 0.857 | 0.939 | 1.01 | 1.08 | 0.869 | 0.716 | 0.513 | 0.497 | 0.52 | 0.499 | 0.485 | 0.296 | 0.403 | 0.383 | 0.4 | 0.348
9 | NCI-H1666 | 0.621 | 1.02 | 0.782 | 0.84 | 0.774 | 0.696 | 0.892 | 0.757 | 0.76 | 0.901 | 0.574 | 0.606 | 0.644 | 0.655 | 0.654 | 0.725 | 0.846 | 0.766 | 0.753 | 0.757
10 | NCI-H1734 |  | 1.03 | 0.91 | 0.898 | 0.725 |  | 0.953 | 0.871 | 0.93 | 0.855 |  | 0.32 | 0.351 | 0.323 | 0.349 | 0.523 | 0.473 | 0.569 | 0.443 | 0.505
11 | NCI-H1755 | 0.91 | 0.992 | 0.949 | 0.992 | 0.97 | 0.955 | 0.987 | 1 | 1.04 | 1.02 | 0.46 | 0.469 | 0.442 | 0.455 | 0.395 | 0.392 | 0.37 | 0.401 | 0.375 | 0.413
12 | NCI-H1792 | 0.95 | 0.945 | 0.979 | 0.931 | 0.7 | 0.535 | 0.62 | 0.636 | 0.539 | 0.425 | 0.635 | 0.603 | 0.704 | 0.692 | 0.659 | 0.79 | 0.79 | 0.822 | 0.707 | 0.717
13 | NCI-H1915 | 0.769 | 0.921 | 0.989 | 0.924 | 1.02 | 1.05 | 1.1 | 1.07 | 1.09 | 1.09 | 0.541 | 0.461 | 0.519 | 0.512 | 0.504 | 0.307 | 0.329 | 0.301 | 0.314 | 0.297
